Assay results taken from PubChem BioAssay AID2060491 (Molecular Pharmacology Branch, DTP, NCI, 2025).

Tested on: 857933-349-R-J2-PDC complex spheroids, viability
Test: Anticancer human tumor 857933-349-R-J2-PDC patient-derived colon adenocarcinoma cell line growth inhibition [GQUAD]
Conditions: for IC50: curve of first compound; for viability, T/C: stronger effect = lower value
Procedure, shortened: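 Multi-cell-type spheroids of tumor cells with HUVEC and mesenchymal stem cells, treated with drug combinations. Concentrations descend in half-log steps from near clinical Cmax, or from 10 microM where Cmax is unknown; viability read-out.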

[1] = second compound 0.0316 µM, first compound 0.0316 µM
[2] = second compound 0.0316 µM, first compound 0.1 µM
[3] = second compound 0.0316 µM, first compound 0.316 µM
[4] = second compound 0.0316 µM, first compound 1 µM
[5] = second compound 0.0316 µM, first compound 3.16 µM
[6] = second compound 0.0316 µM, first compound 10 µM
[7] = second compound 0.1 µM, first compound 0.0316 µM
[8] = second compound 0.1 µM, first compound 0.1 µM
[9] = second compound 0.1 µM, first compound 0.316 µM
[10] = second compound 0.1 µM, first compound 1 µM
[11] = second compound 0.1 µM, first compound 3.16 µM
[12] = second compound 0.1 µM, first compound 10 µM
[13] = second compound 0.316 µM, first compound 0.0316 µM
[14] = second compound 0.316 µM, first compound 0.1 µM
[15] = second compound 0.316 µM, first compound 0.316 µM
[16] = second compound 0.316 µM, first compound 1 µM
[17] = second compound 0.316 µM, first compound 3.16 µM
[18] = second compound 0.316 µM, first compound 10 µM
[19] = second compound 1 µM, first compound 0.0316 µM
[20] = second compound 1 µM, first compound 0.1 µM
[21] = second compound 1 µM, first compound 0.316 µM
[22] = second compound 1 µM, first compound 1 µM
[23] = second compound 1 µM, first compound 3.16 µM
[24] = second compound 1 µM, first compound 10 µM
[25] = second compound 3.16 µM, first compound 0.0316 µM
[26] = second compound 3.16 µM, first compound 0.1 µM
[27] = second compound 3.16 µM, first compound 0.316 µM
[28] = second compound 3.16 µM, first compound 1 µM
[29] = second compound 3.16 µM, first compound 3.16 µM
[30] = second compound 3.16 µM, first compound 10 µM
[31] = second compound 10 µM, first compound 0.0316 µM
[32] = second compound 10 µM, first compound 0.1 µM
[33] = second compound 10 µM, first compound 0.316 µM
[34] = second compound 10 µM, first compound 1 µM
[35] = second compound 10 µM, first compound 3.16 µM
[36] = second compound 10 µM, first compound 10 µM
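Note: spheroids exposed to compounds for one week before readout.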
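Throughout, for viability, T/C: percent viability relative to vehicle DMSO wells taken as 100%.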

Structure (SMILES): O=C(c1cc(Cc2n[nH]c(=O)c3ccccc23)ccc1F)N1CCN(C(=O)C2CC2)CC1 + CN(C)c1ccc(Nc2c3ccc(NC(=O)CCN4CCCC4)cc3nc3cc(NC(=O)CCN4CCCC4)ccc23)cc1
- IC50 (second compound 0.0316 µM): > 10 µM
- IC50 (second compound 0.1 µM): > 10 µM
- IC50 (second compound 0.316 µM): > 10 µM
- IC50 (second compound 1 µM): > 10 µM
- IC50 (second compound 3.16 µM): > 10 µM
- IC50 (second compound 10 µM): > 10 µM
- viability, T/C [1]: 111%
- viability, T/C [2]: 99.1%
- viability, T/C [3]: 108%
- viability, T/C [4]: 98.8%
- viability, T/C [5]: 106%
- viability, T/C [6]: 107%
- viability, T/C [7]: 109%
- viability, T/C [8]: 104%
- viability, T/C [9]: 100%
- viability, T/C [10]: 104%
- viability, T/C [11]: 99.8%
- viability, T/C [12]: 108%
- viability, T/C [13]: 103%
- viability, T/C [14]: 99.3%
- viability, T/C [15]: 103%
- viability, T/C [16]: 98.4%
- viability, T/C [17]: 109%
- viability, T/C [18]: 107%
- viability, T/C [19]: 96%
- viability, T/C [20]: 95.6%
- viability, T/C [21]: 104%
- viability, T/C [22]: 93.7%
- viability, T/C [23]: 109%
- viability, T/C [24]: 98.5%
- viability, T/C [25]: 91.2%
- viability, T/C [26]: 82%
- viability, T/C [27]: 91.2%
- viability, T/C [28]: 84%
- viability, T/C [29]: 93.4%
- viability, T/C [30]: 91.8%
- viability, T/C [31]: 73.1%
- viability, T/C [32]: 76.3%
- viability, T/C [33]: 75.4%
- viability, T/C [34]: 73.2%
- viability, T/C [35]: 80.5%
- viability, T/C [36]: 81.5%

Structure (SMILES): COc1ncnc(C2CC2)c1-c1ncc2cnn(Cc3ccc(-c4nc(C(F)(F)F)cn4C(C)C)cc3)c2n1 + Cc1cnc(CNC(=O)c2c(=O)c3ccc(N4CCCN(C)CC4)nc3n3c2sc2ccccc23)cn1
- IC50 (second compound 0.0316 µM): > 10 µM
- IC50 (second compound 0.1 µM): > 10 µM
- IC50 (second compound 0.316 µM): < 0.0316 µM
- IC50 (second compound 1 µM): < 0.0316 µM
- IC50 (second compound 3.16 µM): < 0.0316 µM
- IC50 (second compound 10 µM): < 0.0316 µM
- viability, T/C [1]: 108%
- viability, T/C [2]: 80.5%
- viability, T/C [3]: 85.4%
- viability, T/C [4]: 81.6%
- viability, T/C [5]: 85.1%
- viability, T/C [6]: 86%
- viability, T/C [7]: 55.2%
- viability, T/C [8]: 58.1%
- viability, T/C [9]: 50%
- viability, T/C [10]: 64.1%
- viability, T/C [11]: 67.2%
- viability, T/C [12]: 70%
- viability, T/C [13]: 19.1%
- viability, T/C [14]: 19.9%
- viability, T/C [15]: 17.7%
- viability, T/C [16]: 22.1%
- viability, T/C [17]: 23.2%
- viability, T/C [18]: 18.1%
- viability, T/C [19]: 3.57%
- viability, T/C [20]: 3.77%
- viability, T/C [21]: 3.91%
- viability, T/C [22]: 3.85%
- viability, T/C [23]: 4.62%
- viability, T/C [24]: 7.3%
- viability, T/C [25]: 2.42%
- viability, T/C [26]: 2.35%
- viability, T/C [27]: 2.33%
- viability, T/C [28]: 2.58%
- viability, T/C [29]: 3.1%
- viability, T/C [30]: 2.88%
- viability, T/C [31]: 0.21%
- viability, T/C [32]: 0.29%
- viability, T/C [33]: 0.4%
- viability, T/C [34]: 0.43%
- viability, T/C [35]: 0.91%
- viability, T/C [36]: 0.42%

Structure (SMILES): Cc1cccc(N(C)C(=O)C2C(O)CCN2c2nc(C)cc(C(F)(F)F)c2C#N)c1 (stereo unspecified) + Cc1[nH]c2ccc(F)cc2c1-c1nc2c3cccnc3c3ncccc3c2[nH]1
- IC50 (second compound 0.0316 µM): > 10 µM
- IC50 (second compound 0.1 µM): > 10 µM
- IC50 (second compound 0.316 µM): > 10 µM
- IC50 (second compound 1 µM): > 10 µM
- IC50 (second compound 3.16 µM): > 10 µM
- IC50 (second compound 10 µM): > 10 µM
- viability, T/C [1]: 101%
- viability, T/C [2]: 99.1%
- viability, T/C [3]: 91.6%
- viability, T/C [4]: 88.2%
- viability, T/C [5]: 98.3%
- viability, T/C [6]: 92%
- viability, T/C [7]: 95.2%
- viability, T/C [8]: 98.4%
- viability, T/C [9]: 98.8%
- viability, T/C [10]: 97.9%
- viability, T/C [11]: 102%
- viability, T/C [12]: 96.7%
- viability, T/C [13]: 101%
- viability, T/C [14]: 104%
- viability, T/C [15]: 106%
- viability, T/C [16]: 102%
- viability, T/C [17]: 101%
- viability, T/C [18]: 110%
- viability, T/C [19]: 94.9%
- viability, T/C [20]: 101%
- viability, T/C [21]: 102%
- viability, T/C [22]: 103%
- viability, T/C [23]: 110%
- viability, T/C [24]: 94.7%
- viability, T/C [25]: 94.6%
- viability, T/C [26]: 97.4%
- viability, T/C [27]: 111%
- viability, T/C [28]: 100%
- viability, T/C [29]: 98.5%
- viability, T/C [30]: 99.7%
- viability, T/C [31]: 96.1%
- viability, T/C [32]: 101%
- viability, T/C [33]: 93%
- viability, T/C [34]: 95%
- viability, T/C [35]: 97.5%
- viability, T/C [36]: 88.3%
